Laboratory results reported in US5468774A, “Tetronic, thiotetronic and tetramic acid derivatives as phospholipase A.sub ” (American Home Products Corporation, priority 1995, dated 1995).

Experiments:
5-lipoxygenase = test: Resident murine peritoneal macrophage assay, LTC4 (5-lipoxygenase); format: cell-based, murine (female Swiss Webster mice); settings: for inhibition at 0.5 µM: Peritoneal macrophage
Method: (§1) The ability of the compounds of the invention to act as inhibitors of the enzymes 5-lipoxygenase and cyclooxygenase is measured in the resident murine peritoneal macrophage assay.
(§2) Resident peritoneal macrophages are collected from female Swiss Webster mice (49 days old, 20-25 gms, Buckshire) by lavaging with 7-8 ml Hanks Balanced Salt Solution (HBSS) without Ca^++ and Mg^++ (GIBCO). The lavage fluid from several mice is pooled and centrifuged at 4° C. for 10 minutes at 400 xg.
(§3) Residual serum and cellular debris are removed from the monolayers by washing 3x with 2 ml HBSS containing Ca^++ and Mg^++. Macrophages are preincubated for 5 minutes with 1 ml serum-free M199 containing 10 μl dimethyl sulfoxide (DMSO) vehicle or test compound prior to cell activation with zymosan ([…]) or arachidonic acid (AA) (2 μM). After 2 hours, the supernatants are removed and either assayed for LTC4 and PGE2 by radioimmunoassay (RIA) directly or stored at -20° C. In all cases, results are expressed as ng metabolite/4×10^6 cells.
(§4) Raw data (dpm) may be stored directly onto an "Autostart" tape using the HP85 in room C-096. The raw data are converted to ng metabolite/4-10^6cells using the standard curve by a "RIANAL" program (HP85) or a "NONLIN" program (HP9816). Results are then expressed as percent inhibition of zymosan induced, leukotriene or prostaglandin synthesis (control) using the equation: [formula]

[1] = tested on: Platelet-Activating Factor Biosynthesis in Human Polymorphonuclear Neutrophils; test: Inhibition of platelet-activating factor (PAF) biosynthesis in human polymorphonuclear neutrophils (in vitro phospholipase A2 assay); format: cell-based; settings: Polymorphonuclear neutrophil, A23187 stimulated human PMN
Method: (§5) The compounds of the invention are tested in an in vitro phospholipase A2 assay to determine the ability of the compounds to inhibit the biosynthesis of platelet-activating factor and LTB4 in purified human neutrophils.
(§6) A leukocyte enriched blood sample obtained from a healthy donor is procured by leukophoresis using a Haemonetics model 30+ blood processor (Biological Specialties, Inc., Lansdale, Pa.). The top "platelet-rich" layer is removed after a low speed spin (35 xg, 15 min, 25° C.) of the sample. The remaining cell suspension is centrifuged (400 xg, 10 min, 25° C.) to sediment the remaining cells. The supernatant is discarded and the cell pellet resuspended in 120 ml HBSS (without Ca^++ /Mg^++). The cell suspension is subjected to ficoll-hypaque sedimentation (Histopaque 1077, 400 xg, 30 min, 25° C). Contaminating erythrocytes are lysed by hypotonic shock (1 min). The cells are then washed once with 40 ml of HBSS and resuspended with HBSS (without Ca^++ /Mg^++) to a concentration of 2.5×10^7 cells/ml for further use. Greater than 95% purity is obtained, as assessed by microscopic examination.
(§7) One ml of human PMN (2.5×10^7 cells/ml) is incubated with vehicle or drugs (10 μl) for 10 minutes at 30° C. After preincubation, an equal volume of HBSS (1 ml) containing 2.4 mM CaCl2, 6 μM calcium ionophore A23187 and 50 μCi[^3 H]-acetate is then incubated at 30° C. for 15 minutes. An aliquot (100 μl) of the reaction mixture is taken out and mixed with 900 μl of 15% ethanol. LTB4 is extracted by using solid phase extraction on reverse phase C18 columns to remove excess [^3 H]-acetate and PAD. […] The quantity of LTB4 in the sample is obtained from RIA determination. […] [^3 H]-PAF is resolved from other phospholipids by TLC on RPC18 plates with a solvent system of chloroform:methanol:water (2:3:1, v/v/v) and is quantitated using a Berthold automated TLC linear analyzer.
(§8) Data presented are the mean +/- s.d. of the values relative to control A23187 stimulated cells for each experiment assayed in triplicate. Percent inhibition when used is calculated as: […]

Human Platelet PLA2 = molecular target: T1, Human Platelet PLA2 (Homo sapiens, UniProt P14555); test: In vitro isolated phospholipase A2 assay, arachidonic acid release from 3H-AA E. coli substrate, human platelet PLA2; format: biochemical; settings: read-out: % Inhibition at 10 μM HP (human platelet)
T1 construct: Semipurified human platelet acid extract PLA2; from tissue; host or cells: human platelets (semipurified acid extract)
T1 sequence (P14555 21-144): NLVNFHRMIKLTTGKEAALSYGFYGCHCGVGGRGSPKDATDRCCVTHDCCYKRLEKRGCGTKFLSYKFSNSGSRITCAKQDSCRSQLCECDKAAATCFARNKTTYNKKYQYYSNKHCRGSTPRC
Method: (§9) The compounds of the invention are tested in an in vitro isolated phospholipase A2 assay to determine the ability of the test compounds to inhibit the release of arachidonic acid from an arachidonic acid-containing substrate by the action of phospholipase A2 enzyme from human and non-human sources.
(§10) Into a 15 mL polypropylene tube are added the following: […]
(§11) ^3 H-AA E. coli substrate^1
(§12) Tris-HCl (0.5M) pH 7.5^3
(§13) PLA2 25 Volume yielding 12%
(§14) *pre-incubate at room temperature 30 min prior to substrate addition.
(§15) ^1 Prepared by adding 2 mL deionized and distilled water to 2 mL
(§16) ^5 Stock 10 mM prepared in dimethyl sulfoxide. Make 1:2 dilution with
(§17) ^6 Two human PLA2 enzymes are used:
a) Semipurified human platelet acid extract PLA2 (in 10 Mm sodium
(§18) Incubate the 100μL reaction mixture for 10 minutes at 37° C. in a shaking water bath. The reaction is terminated by the addition of 2 mL tetrahydrofuran, followed by vortexing. NH2 columns ([…]--Analytichem International) are conditioned with 0.5 mL tetrahydrofuran followed by 0.5 mL tetrahydrofuran/water (2 mL:0.1 mL, v/v).
(§19) The sample is loaded onto the columns and slowly drawn through them. The hydrolyzed arachidonic acid retained in the columns is eluted therefrom with 1 mL tetrahydrofuran/glacial acetic acid (2%). The arachidonic acid is transferred to scintillation vials and quantitated by β-counting analysis. […]

[2] = tested on: LTB4 biosynthesis in human neutrophils; test: Inhibition of LTB4 biosynthesis in purified human neutrophils (in vitro phospholipase A2 assay); format: cell-based; settings: Neutrophil, A23187 stimulated human PMN
Method: as §5, §6, §7, §8

cyclooxygenase = test: Resident murine peritoneal macrophage assay, PGE2 (cyclooxygenase); format: cell-based, murine (female Swiss Webster mice); settings: mouse peritoneal macrophages; for inhibition at 0.5 µM: Peritoneal macrophage
Method: as §1
as §2, with “xg. The cell pellet is resuspended in Medium 199 (GIBCO) with HEPES buffer containing 100 μg/ml gentamicin. Two ml of the cell suspension (4×10^6 cells) are then plated on 35 mm culture dishes (Nunc).” for “xg.”
A macrophage monolayer is established after a 1-1.5 hour incubation of the cells at 37° C. in an atmosphere of 95% O2 and 5% CO2. The monolayers are washed 2x with 2 ml HBDSS, containing Ca^++ and Mg^++ after which 2 ml Medium 199 supplemented with 10% freshly thawed heat-inactivated fetal bovine serum and 100 μg/ml gentamicin is added for an overnight incubation.
as §3, §4

Human Synovial PLA2 = molecular target: T2, Human Synovial PLA2 (Homo sapiens, UniProt P14555); test: In vitro isolated phospholipase A2 assay, arachidonic acid release from 3H-AA E. coli substrate, human synovial fluid PLA2; format: biochemical; settings: read-out: % Inhibition at 10 μM HSF (human synovial fluid)
T2 construct: Purified human synovial fluid; from tissue; host or cells: human synovial fluid (purified)
T2 sequence (P14555 21-144): T1 sequence (P14555 21-144)
Method: as §9, §10, §11, §12, §13, §14, §15, §16, §17
b) Purified human synovial fluid.
as §18, §19

[3] = 0.5 μM, mouse peritoneal macrophages

Row | SMILES | inhibition at 10 µM (Human Platelet PLA2) [%] | inhibition at 10 µM (Human Synovial PLA2) [%] | LTC4 % Inhibition (5-lipoxygenase; [3]) [%] | PGE2 % Inhibition (cyclooxygenase; 0.5 μM) [%] | IC50 (5-lipoxygenase; reference compounds) [µM] | inhibition at 10 µM [1] [%] | inhibition at 0.5 µM (5-lipoxygenase; [3]) [%] | inhibition at 10 µM [2] [%] | inhibition at 0.5 µM (cyclooxygenase) [%]
1 | CCCCCC#CCC#CCC#CCC#CCCCC(=O)O [ETYA, reference compound] | – | – | – | – | 0.44 | – | – | – | –
2 | O=C(CCC1CCCCCCCCCCC1)C1=C(O)COC1=O [Example 1, 3-(3-Cyclododecyl-1-oxopropyl)-4-hydroxy-2(5H)-furanone] | -3.7 | 41.9 | – | – | – | 84.3 | 29 | 95.1 | 46.7
3 | CN1CC(O)=C(C(=O)CCC2CCCCCCCCCCC2)C1=O [Example 3, 3-(3-cyclododecyl-1-oxopropyl)-1.5-dihydro-4-hydroxy-1-methyl-1H-pyrrolin-2-one] | – | – | – | – | – | 64.4 | 66.2 | 90.4 | 75.9
4 | O=C(NCCC1CCCCCCCCCCC1)C1=C(O)COC1=O [Example 15, 4-Hydroxy-2-oxo-2,5-dihydro-furan-3-carboxylic acid-2-cyclododecyl-ethylamide] | – | – | – | – | – | – | 25.9 | – | 52

Second part, led by results:

Row | inhibition at 10 µM (Human Platelet PLA2) [%] | inhibition at 10 µM (Human Synovial PLA2) [%] | LTC4 % Inhibition (5-lipoxygenase; [3]) [%] | PGE2 % Inhibition (cyclooxygenase; 0.5 μM) [%] | SMILES | IC50 (5-lipoxygenase; reference compounds) [µM] | inhibition at 10 µM [1] [%] | inhibition at 0.5 µM (5-lipoxygenase; [3]) [%] | inhibition at 10 µM [2] [%] | inhibition at 0.5 µM (cyclooxygenase) [%]
5 | 18.2 | 53 | – | – | O=C(CCC1CCCCCCCCCCC1)C1=C(O)CSC1=O [Example 2, 3-(3-cyclododecyl-1-oxopropyl)-4-hydroxy-2(5H)-thiophenone] | – | 79.2 | 76.1 | 69.6 | 97.1
6 | – | – | 33.0 | 77.0 | O=C(COCC1CCCCCCCCCCC1)C1=C(O)CSC1=O [Example 16] | – | – | – | – | –
